This assay addresses T1, RXFP1 (Homo sapiens, UniProt Q9HBX9).
T1 construct: OVCAR5 cells expressing endogenous RXFP1; endogenous in cells; host or cells: OVCAR5
T1 sequence (Q9HBX9 1-757): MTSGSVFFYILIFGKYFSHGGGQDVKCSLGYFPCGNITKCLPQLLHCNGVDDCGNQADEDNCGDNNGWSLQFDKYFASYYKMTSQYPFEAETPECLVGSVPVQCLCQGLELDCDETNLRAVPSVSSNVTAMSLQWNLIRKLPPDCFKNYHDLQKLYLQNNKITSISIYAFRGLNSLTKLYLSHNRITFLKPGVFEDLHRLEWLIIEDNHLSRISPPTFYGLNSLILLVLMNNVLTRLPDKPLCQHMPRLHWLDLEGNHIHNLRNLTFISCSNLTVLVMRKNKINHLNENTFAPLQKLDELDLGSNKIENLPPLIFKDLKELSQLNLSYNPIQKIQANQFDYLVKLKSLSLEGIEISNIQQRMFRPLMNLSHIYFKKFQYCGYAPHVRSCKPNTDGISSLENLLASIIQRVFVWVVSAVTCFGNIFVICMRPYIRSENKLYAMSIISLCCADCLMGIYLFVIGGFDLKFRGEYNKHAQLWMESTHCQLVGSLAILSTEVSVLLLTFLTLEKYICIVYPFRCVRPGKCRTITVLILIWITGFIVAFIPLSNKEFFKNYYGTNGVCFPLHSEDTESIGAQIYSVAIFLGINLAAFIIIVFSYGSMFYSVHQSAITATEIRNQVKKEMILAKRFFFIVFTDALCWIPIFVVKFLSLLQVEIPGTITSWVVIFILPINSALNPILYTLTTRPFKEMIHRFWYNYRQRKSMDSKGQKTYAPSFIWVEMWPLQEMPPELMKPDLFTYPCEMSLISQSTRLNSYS
Kind of assay: OVCAR5 cAMP assay (HTRF). The format is cell-based. The settings on record: for EC50: OVCAR 5 cells expressing endogenous RXFP1, cAMP readout; for Emax: OVCAR 5 cells, maximal cAMP relative to H2-relaxin. The text has this: OVCAR5 cells expressing endogenous RXFP1 were used to test RXP1 agonist properties of peptides of the invention, and in particular of the peptides of sequence SEQ ID NO: 1-97.
Since RXFP1 is a Gs coupled GPCR, cAMP was used as readout of RXFP1 activation.
Isobutyl Methyl Xanthine (IBMX) was used to inhibit phosphodiesterase activity facilitating cAMP measurements. HTRF (Homogenous Time Resolved Fluorescence) technology was used to detect cAMP due to its great sensitivity.
In summary, OVCAR5 were grown in regular medium (RPMI) containing 10% fetal calf serum (FCS) and 1% antibiotics (penicillin/streptomycin).
Before the experiments, cells were detached with accutase and incubated for 40 minutes at 37° C. with 1 mM (3-isobutyl-1-methylxanthine) IBMX.
Cells were then distributed in 384 black well plates containing increasing concentrations of the different peptides in a fix volume of medium (without FCS).
After an incubation of 30 min at 37° C. in an humid incubator in 5% CO2, the reaction was stopped by adding a fixed volume of a solution containing a lysis buffer and cAMP-D2 (cAMP labeled with the dye d2) and the anti cAMP antibody linked to Europium and used for cAMP detection.
Readout of the experiment were performed on a fluorimeter allowing HTRF measurement. Activation curves were generated by plotting the intracellular value of cAMP versus log 10 of the compound concentration.
The 50% activation concentration (EC50) was calculated by nonlinear regression using the sigmoidal dose-response (variable slope) equation with Prism 5 software.
Emax % was determined as the maximal intracellular value of cAMP for test compound (upper limit of cAMP vs concentration curve) divided by the maximal intracellular value of cAMP for H2-relaxin determined in the same test occasion multiplied by 100. Emax %=100×[cAMPtest cpd]/[cAMPH2-Rlx]
Background: Cyclic AMP is a second messenger, typically raised through Gs and lowered through Gi signalling.

SMILES strings stand for the structures. Starred links: 1 amine or outer side, 2 acyl side, 3 side chain; linkers in the order of their positions; H or OH if unused. Non-standard residues stand in square brackets, D forms with d. Residues, ends and D or L forms follow the SMILES beside them. Groups on a side chain read outwards from the residue. *: point of attachment. X15 = CCCCCCCCCCCCCCCCCC(=O)N[C@@H](CCC(=O)N[C@@H](CCC(=O)N[C@@H](CCC(=O)NCCCOCCOCCOCCCNC(=O)COCC(=O)NCCCOCCOCCOCCCNC(=O)COCC(=O)NCCCOCCOCCOCCCNC(=O)COCC(=O)*)C(=O)O)C(=O)O)C(=O)O; X3 = CCCCCCCCCCCCCCCCCC(=O)N[C@@H](CCC(=O)N[C@@H](CCC(=O)N[C@@H](CCC(=O)NCCCOCCOCCOCCCNC(=O)CCC(=O)NCCCOCCOCCOCCCNC(=O)CCC(=O)NCCCOCCOCCOCCCN*)C(=O)O)C(=O)O)C(=O)O; X1 = CCCCCCCCCCCCCCCC(=O)N[C@@H](CCC(=O)N[C@@H](CCC(=O)N[C@@H](CCC(=O)NCCCOCCOCCOCCCNC(=O)CCC(=O)NCCCOCCOCCOCCCNC(=O)CCC(=O)NCCCOCCOCCOCCCN*)C(=O)O)C(=O)O)C(=O)O; X4 = CCCCCCCCCCCCCCCCCC(=O)N[C@@H](CCC(=O)N[C@@H](CCC(=O)N[C@@H](CCC(=O)NCCCOCCOCCOCCCNC(=O)CCC(=O)NCCCOCCOCCOCCCN*)C(=O)O)C(=O)O)C(=O)O; Suc = O=C(CCC(=O)[*:2])[*:1]; αMeK = C[C@](N)(CCCCN)C(=O)O; Aib = CC(C)(N)C(=O)O

As a reminder, the EC50 is the concentration that produces a half-maximal response. Read a high EC50 as a less potent agent. Broadly, the Emax is the maximal effect, on the per cent scale that the assay sets.

Regarding `CCCCCCCCCCCCCCCC(=O)N[C@@H](CCC(=O)N[C@@H](CCC(=O)N[C@@H](CCC(=O)NCCCOCCOCCOCCCNC(=O)CCC(=O)NCCCOCCOCCOCCCNC(=O)CCC(=O)NCCCOCCOCCOCCCNC(=O)CCC(=O)NCCCC[C@H](NC(=O)CNC(=O)[C@H](CCC(=O)O)NC(=O)C(C)(C)NC(=O)C(C)(C)NC(=O)[C@@H](NC(=O)[C@H](CCCCNC(C)=O)NC(=O)C(C)(C)NC(=O)[C@H](CCCNC(=N)N)NC(=O)[C@@H](NC(=O)[C@H](CCCCN)NC(=O)[C@H](CCC(=O)O)NC(=O)[C@H](CCCNC(=N)N)NC(=O)CNC(=O)[C@H](CCC(=O)O)NC(=O)[C@H](CC(C)C)NC(C)=O)C(C)C)[C@@H](C)CC)C(=O)N[C@@H](CO)C(=O)N[C@H](C(=O)N[C@@H](Cc1ccccc1)C(=O)N[C@@H](CO)C(=O)N[C@@](C)(CCCCN)C(=O)N[C@@H](CCCNC(=N)N)C(=O)N[C@@H](C)C(=O)N[C@@H](CCCCNC(C)=O)C(N)=O)[C@@H](C)O)C(=O)O)C(=O)O)C(=O)O` [compound 29] (Ac-LEGREKVR[Aib]K(Ac)I[Aib][Aib]EGK([Suc-X1])STFS[αMeK]RAK(Ac)-NH2), the EC50 came to 1.6 nM and the maximum response (Emax) was 88%.
As for `CCCCCCCCCCCCCCCCCC(=O)N[C@@H](CCC(=O)N[C@@H](CCC(=O)N[C@@H](CCC(=O)NCCCOCCOCCOCCCNC(=O)CCC(=O)NCCCOCCOCCOCCCNC(=O)CCC(=O)NCCCOCCOCCOCCCNC(=O)CCC(=O)NCCCC[C@H](NC(=O)CNC(=O)[C@H](CCC(=O)O)NC(=O)C(C)(C)NC(=O)C(C)(C)NC(=O)[C@@H](NC(=O)[C@H](CCCCNC(C)=O)NC(=O)[C@H](C)NC(=O)[C@H](CCCNC(=N)N)NC(=O)[C@@H](NC(=O)[C@H](CCCCN)NC(=O)[C@H](CCC(=O)O)NC(=O)[C@H](CCCNC(=N)N)NC(=O)CNC(=O)[C@H](CCC(=O)O)NC(=O)[C@H](CC(C)C)NC(C)=O)C(C)C)[C@@H](C)CC)C(=O)N[C@@H](CO)C(=O)N[C@H](C(=O)N[C@@H](Cc1c[nH]c2ccccc12)C(=O)N[C@@H](CO)C(=O)N[C@@](C)(CCCCN)C(=O)N[C@@H](CCCNC(=N)N)C(=O)N[C@@H](C)C(=O)N[C@@H](CCCCNC(C)=O)C(N)=O)[C@@H](C)O)C(=O)O)C(=O)O)C(=O)O` [compound 30] (Ac-LEGREKVRAK(Ac)I[Aib][Aib]EGK([Suc-X3])STWS[αMeK]RAK(Ac)-NH2), the EC50 amounted to 0.21 nM and the Emax came out at 89%.
The compound `CCCCCCCCCCCCCCCC(=O)N[C@@H](CCC(=O)N[C@@H](CCC(=O)N[C@@H](CCC(=O)NCCCOCCOCCOCCCNC(=O)CCC(=O)NCCCOCCOCCOCCCNC(=O)CCC(=O)NCCCOCCOCCOCCCNC(=O)CCC(=O)NCCCC[C@H](NC(=O)CNC(=O)[C@H](CCC(=O)O)NC(=O)C(C)(C)NC(=O)C(C)(C)NC(=O)[C@@H](NC(=O)[C@H](CCCCNC(C)=O)NC(=O)[C@H](C)NC(=O)[C@H](CCCNC(=N)N)NC(=O)[C@@H](NC(=O)[C@H](CCCCN)NC(=O)[C@H](CCC(=O)O)NC(=O)[C@H](CCCNC(=N)N)NC(=O)CNC(=O)[C@H](CCC(=O)O)NC(=O)[C@H](CC(C)C)NC(C)=O)C(C)C)[C@@H](C)CC)C(=O)N[C@@H](CO)C(=O)N[C@H](C(=O)N[C@@H](Cc1c[nH]c2ccccc12)C(=O)N[C@@H](CO)C(=O)NC(C)(C)C(=O)N[C@@H](CCCNC(=N)N)C(=O)N[C@@H](CCCNC(=N)N)C(=O)N[C@@H](CCCCNC(C)=O)C(N)=O)[C@@H](C)O)C(=O)O)C(=O)O)C(=O)O` [compound 31] (Ac-LEGREKVRAK(Ac)I[Aib][Aib]EGK([Suc-X1])STWS[Aib]RRK(Ac)-NH2) came in with a maximal response (Emax) of 94%.
Consider `CCCCCCCCCCCCCCCCCC(=O)N[C@@H](CCC(=O)N[C@@H](CCC(=O)N[C@@H](CCC(=O)NCCCOCCOCCOCCCNC(=O)COCC(=O)NCCCOCCOCCOCCCNC(=O)COCC(=O)NCCCOCCOCCOCCCNC(=O)COCC(=O)NCCCC[C@H](NC(=O)CNC(=O)[C@H](CCC(=O)O)NC(=O)C(C)(C)NC(=O)C(C)(C)NC(=O)[C@@H](NC(=O)[C@H](CCCCNC(C)=O)NC(=O)[C@H](C)NC(=O)[C@H](CCCNC(=N)N)NC(=O)[C@@H](NC(=O)[C@H](CCCCN)NC(=O)[C@H](CCC(=O)O)NC(=O)[C@H](CCCNC(=N)N)NC(=O)CNC(=O)[C@H](CCC(=O)O)NC(=O)[C@H](CC(C)C)NC(C)=O)C(C)C)[C@@H](C)CC)C(=O)N[C@@H](CO)C(=O)N[C@H](C(=O)N[C@@H](Cc1ccccc1)C(=O)N[C@@H](CO)C(=O)N[C@@](C)(CCCCN)C(=O)N[C@@H](CCCNC(=N)N)C(=O)N[C@@H](C)C(=O)N[C@@H](CCCCNC(C)=O)C(N)=O)[C@@H](C)O)C(=O)O)C(=O)O)C(=O)O` [compound 32] (Ac-LEGREKVRAK(Ac)I[Aib][Aib]EGK(X15)STFS[αMeK]RAK(Ac)-NH2), for which a half-maximal response (EC50) required 0.1 nM and the maximum response (Emax) was determined as 97%.
On to `CCCCCCCCCCCCCCCCCC(=O)N[C@@H](CCC(=O)N[C@@H](CCC(=O)N[C@@H](CCC(=O)NCCCOCCOCCOCCCNC(=O)CCC(=O)NCCCOCCOCCOCCCNC(=O)CCC(=O)NCCCC[C@H](NC(=O)CNC(=O)[C@H](CCC(=O)O)NC(=O)C(C)(C)NC(=O)C(C)(C)NC(=O)[C@@H](NC(=O)[C@H](CCCCNC(C)=O)NC(=O)[C@H](C)NC(=O)[C@H](CCCNC(=N)N)NC(=O)[C@@H](NC(=O)[C@H](CCCCN)NC(=O)[C@H](CCC(=O)O)NC(=O)[C@H](CCCNC(=N)N)NC(=O)CNC(=O)[C@H](CCC(=O)O)NC(=O)[C@H](CC(C)C)NC(C)=O)C(C)C)[C@@H](C)CC)C(=O)N[C@@H](CO)C(=O)N[C@H](C(=O)N[C@@H](Cc1ccccc1)C(=O)N[C@@H](CO)C(=O)N[C@@](C)(CCCCN)C(=O)N[C@@H](CCCNC(=N)N)C(=O)N[C@@H](C)C(=O)N[C@@H](CCCCNC(C)=O)C(N)=O)[C@@H](C)O)C(=O)O)C(=O)O)C(=O)O` [compound 34] (Ac-LEGREKVRAK(Ac)I[Aib][Aib]EGK([Suc-X4])STFS[αMeK]RAK(Ac)-NH2), for which the concentration for a half-maximal effect (EC50) was determined as 0.14 nM and the Emax amounted to 90%.
Regarding `CCCCCCCCCCCCCCCC(=O)N[C@@H](CCC(=O)N[C@@H](CCC(=O)N[C@@H](CCC(=O)NCCCOCCOCCOCCCNC(=O)CCC(=O)NCCCOCCOCCOCCCNC(=O)CCC(=O)NCCCOCCOCCOCCCNC(=O)CCC(=O)NCCCC[C@H](NC(=O)CNC(=O)[C@H](CCC(=O)O)NC(=O)C(C)(C)NC(=O)C(C)(C)NC(=O)[C@@H](NC(=O)[C@H](CCCCNC(C)=O)NC(=O)[C@H](C)NC(=O)[C@H](CCCNC(=N)N)NC(=O)[C@@H](NC(=O)[C@H](CCCCN)NC(=O)[C@H](CCC(=O)O)NC(=O)[C@H](CCCNC(=N)N)NC(=O)CNC(=O)[C@H](CCC(=O)O)NC(=O)[C@H](CC(C)C)NC(C)=O)C(C)C)[C@@H](C)CC)C(=O)N[C@@H](CO)C(=O)N[C@H](C(=O)N[C@@H](Cc1c[nH]c2ccccc12)C(=O)NC(C)(C)C(=O)N[C@@H](CCCCN)C(=O)N[C@@H](CCCNC(=N)N)C(=O)N[C@@H](C)C(=O)N[C@@H](CCCCNC(C)=O)C(N)=O)[C@@H](C)O)C(=O)O)C(=O)O)C(=O)O` [compound 35] (Ac-LEGREKVRAK(Ac)I[Aib][Aib]EGK([Suc-X1])STW[Aib]KRAK(Ac)-NH2), the concentration giving a half-maximal response (EC50) is 2.33 nM and the Emax came to 91%.

Values taken from patent US11725036B2, “Modified lipidated relaxin B chain peptides and their therapeutic use” (Sanofi, priority 2018, dated 2023).
